# Test results taken from ChEMBL document CHEMBL3301361, “Experimental in vitro DMPK and physicochemical data on a set of publicly disclosed compounds”.
# Assay: physchem
# Settings: octan-1-ol/water, pH 7.4, LogD7.4
row,logD,SMILES
1,2.59,C1=C(c2cc3ccccc3o2)C2CCN1CC2
2,2.63,CC(C)c1ncc(NC(=O)OCc2ccccc2)c(=O)n1CC(=O)NC(C(=O)C(F)(F)F)C(C)C (stereo unspecified)
3,2.6,NC1CCc2cc(OC(=O)c3ccccc3)c(OC(=O)c3ccccc3)cc2C1 (stereo unspecified)
4,2.55,O=C(COCc1ccncc1)N1CCN(c2ccc(Cl)cc2F)CC1
5,2.63,O=C(COCc1ccncc1)N1CCC(c2ccc(Cl)cc2Cl)CC1
6,2.65,CCOc1ccc(-c2cnc3n2CCC3)cc1
7,2.63,CCN(CC)S(=O)(=O)c1ccc(NC(=O)C(C)(O)C(F)(F)F)cc1 (stereo unspecified)
8,2.57,COc1cc2nnc(C(N)=O)c(Nc3cc(C)ccc3F)c2cc1N1CCN(C)CC1
9,2.61,O=C(N[C@@H](c1ccccc1)[C@@H]1CCCCN1)c1cccc(C(F)(F)F)c1Cl
10,2.6,COc1cc(F)ccc1-c1cncc(CNC2CCCCC2)c1
11,2.57,N#Cc1ccccc1Oc1ccc(C(=O)NCc2ccncc2)cc1
12,2.64,C=CCCCCCCCCC(=O)N[C@H]1CCC(=O)NC1=O
13,2.56,CCC(c1nc2ccsc2c(=O)n1Cc1ccccc1)N(CCCN)C(=O)c1ccc(C)nc1 (stereo unspecified)
14,2.65,Cc1ccc(NC(=O)c2cccc(N(C)C)c2)cc1NC(=O)c1ccc(O)cc1
15,2.56,COc1ccc(NC(=O)c2ccc(-c3ccncc3)c(C)c2)cc1N1CCN(C)CC1
16,2.64,Cc1ccc(C(=O)NC2CCN(c3cc(C(N)=O)cc(Cl)n3)CC2)[nH]1
17,2.58,Cc1ccc(-c2c[nH]nn2)cc1
18,2.64,CN[C@@H](C)C(=O)N[C@H](C(=O)N[C@H]1CCCN(CCc2cccc(F)c2)C1)C1CCCCC1
19,2.63,O=C(Nc1ccc(Nc2ccc(NC(=O)c3ccccc3)c3c2C(=O)c2ccccc2C3=O)c2c1C(=O)c1ccccc1C2=O)c1ccccc1
20,2.65,CC(=O)Nc1ccc2[nH]cc(-c3cc(NC4CC4)n4ncc(C#N)c4n3)c2c1

row,logD,SMILES
1,2.55,Cn1cncc1-c1c2c(=O)n(CC#CCO)c(=O)n(CC3CC3)c2nn1Cc1ccnc2ccc(Cl)cc12
2,2.61,CCCSc1nc(NC[C@H]2CC[C@H](C(=O)O)CC2)ccc1C(=O)NC1CCCCC1
3,2.6,Cc1cc(S(=O)(=O)N2CCN(C)CC2)ccc1-c1cnc(N)c(C(=O)Nc2cccnc2)n1
4,2.65,COCCN(C)Cc1ccc(Nc2ncc3cc(-c4ccncc4)ccc3n2)cc1
5,2.6,COc1ccc(-c2ccc3c(N4CCOC[C@@H]4C)nc(-n4ccnc4)nc3n2)cc1CO
6,2.64,Nc1ccc2ncnc(Nc3ccc(F)c(Cl)c3)c2c1
7,2.57,CC(C)C(NC(=O)Cn1c(-c2ccccc2)ccc(NS(=O)(=O)NCc2ccccc2)c1=O)C(=O)C(F)(F)F (stereo unspecified)
8,2.6,COC(=O)CCCCCCC(=O)Nc1ccc2c(c1)-c1ccccc1C(=O)C2=O
9,2.62,C[C@@](O)(C(=O)Nc1ccc(C(=O)N2CCCCC2)cc1Cl)C(F)(F)F
10,2.61,O=C1O[C@@H](COc2ccon2)CN1c1ccc(C2=CCOCC2)c(F)c1
11,2.6,Clc1ccc2c(c1Nc1ncnc3cc(OCCN4CCCC4)cc(OC4CCOCC4)c13)OCO2
12,2.61,Cn1c(-c2ccncc2)cc2onc(-c3ccccc3)c2c1=O
13,2.59,CCCCC(O)c1[nH]c2cc(C)c(C(=O)O)cc2c1CCc1ccccc1 (stereo unspecified)
14,2.64,COCCOc1cc2nccc(Nc3cc(O)c(Cl)cc3F)c2cc1OC
15,2.64,Cn1cc(S(C)(=O)=O)nc1-c1c2c(=O)n(C)c(=O)n(CC3CC3)c2nn1Cc1ccnc2ccc(Cl)cc12
16,2.6,O=C1C(=O)c2cccc([N+](=O)[O-])c2-c2ccccc21
17,2.55,O=C(c1cc(Cc2n[nH]c(=O)c3ccccc23)ccc1F)N1CCN(c2ccccn2)CC1
18,2.6,Cn1cc(-c2cccc(C[C@H](NC(=O)c3cc(C(C)(C)C)nn3C)C(=O)NCC#N)c2)cn1
19,2.59,Cc1cc(Oc2ccnc(Nc3ccc(N4CCOCC4)cc3)c2)c(-c2ccccn2)nc1C
20,2.6,CN1CC(=O)N2[C@H](c3ccc4c(c3)OCO4)c3[nH]c4ccccc4c3C[C@@H]2C1=O

row,SMILES,logD
1,CN[C@@H](C)C(=O)N[C@H](C(=O)N[C@H]1CCCN(CCCc2ccccc2)C1)C1CCCCC1,2.6
